In one data set the test system is Raw 264.7 macrophages. Briefly: MTT viability assay, Raw 264.7 macrophages. As to conditions: 128 μM, 24 h incubation. How it is done: Cell viability is expressed as percentage with respect to the control (cells not treated with the peptides). Data points represent the mean of triplicate samples ±SEM. […] The levels of statistical significance between the two peptides are indicated as follows: **p<0.01, ***p<0.001.
Cells were plated in wells of a microtiter plate, at 4×10^4 cells/well in DMEM supplemented with 2 mM glutamine and 2% FBS (for A549 cells) or DMEM containing 2 mM glutamine, non-essential amino acids (NEAA), sodium pyruvate and 2% FBS (for Raw 264.7 macrophages). After overnight incubation at 37° C. in a 5% CO2 atmosphere, the medium was replaced with 100 μl fresh serum-free medium supplemented with the peptides at different concentrations. After 24 h of peptide treatment, cell viability was determined by a MTT assay.

In data set [1] the test system is human telomerase immortalized corneal epithelial cells (hTCEpi). Briefly: Wound healing (cell migration) assay, corneal epithelial cells. It counts as cell-based. As to conditions: hTCEpi monolayer. How it is done:
The percentage of cell-covered area at each time point was determined and is reported on the y-axis. Control (Ctrl) represents cells not treated with the peptide. All data are the mean of at least three independent experiments ±SE.
To determine cell migration after treatment with Esc-1a(1-21)NH2, a wound healing assay was performed using human telomerase immortalized corneal epithelial cells (hTCEpi) (FIG. 9). Cells were cultured in Keratinocyte growth Medium-2 supplemented with growth factors and Normocin […] (KGM-2g). Cell migration was studied as follows: hTCEpi cells (70,000) suspended in KGM-2g were seeded on each side of ibidi culture inserts for live cell analysis (Ibidi, Munich, Germany). Inserts were placed into 35 mm dishes and incubated at 37° C. and 5% CO2 to allow cells grow to confluence. Afterwards, inserts were removed with sterile tweezers to create a cell-free area (“wound”) of approximately 500 μm; after a wash with 1 ml of PBS, 1 ml of Dulbecco's modified Eagle's medium (DMEM) supplemented with 4 mM L-glutamine, 5% fetal bovine serum (FBS) and the peptide at different concentrations was added. The dishes with inserts were placed in an appropriate incubator and the cells were allowed to migrate. […] The percentage of cell-covered area at each time was determined by WIMASIS Image Analysis program. […]

The test system of the next data set is Staphylococcus aureus. Particulars: Staphylococcus aureus n. 6 ME, clinical ocular isolate. As to the method:
(§1) To determine the minimum inhibitory concentration (MIC) of Esc-1a(1-21)NH2 that causes total inhibition of microbial growth against Pseudomonas aeruginosa and Staphylococcal strains, the following experiment (using P. aeruginosa ATCC 19660 as an example) was performed. MIC was determined using the 96 well micro-plate dilution assay. The test was performed in triplicate wells and Esc-1a(1-21)NH2 was serially diluted to give concentrations of 0.125 μM to 64 μM.
(§2) Day 1: Picked a colony from a P. aeruginosa ATCC19660 streak plate, inoculated in to nutrient broth and incubated overnight at 37° C. with shaking (250 rpm) Day 2 Steps: Removed 100 μl of the bacterial suspension and inoculated into 50 ml of fresh broth. Incubated for 2.5 hours with vigorous shaking (250 rpm) at 37° C. to achieve mid-log phase growth. Centrifuged the 50 ml culture at 3100 g for 10 minutes; discarded supernatant and resuspended pellet in 2 ml Muller-Hinton broth (MHB). Adjusted the optical density (OD) of the bacterial culture to 0.2 at 620 nm (corresponds to ˜10^7 CFU/ml) and diluted to 2×10^6 CFU/ml using MHB media. Thawed an aliquot of the peptide on ice. Pipetted 90 μl of MHB into wells A1, B1 and C1 and 50 μl of MHB media into A2-C2 through A12-C12. Added 10 μl of Esc-1a(1-21)NH2 into wells A1, B1 and C1 and performed serial twofold dilutions of peptide in a volume of 50 μl from column 1 to column 10 (i.e. transferred 50 μl from A1, B1 and C1 to A2, B2 and C2 and so on till A10-C10). […] Pipetted 50 μl of the diluted P. aeruginosa ATCC 19660 in to each well using a multichannel pipette (final concentration was 1×10^5 bacteria in 100 μl volume). Wrapped the plate using parafilm to prevent evaporation and incubated in a shaker incubator (150 rpm) at 37° C. for 18-24 h.
(§3) Day 3 Steps: Read the plate using the spectrophotometer at 590 nm after examining the plates visually for turbidity. Generated spot plates to check for bacterial growth by plating out the contents of the first 3 wells showing no visible growth of bacteria onto MHA plates. Plated dilutions in duplicate and incubated the plates at 37° C. for 18 hr.
(§4) Day 4: Counted the number of colonies on the agar plates and plotted the data.

Another data set has as its system Staphylococcus hominis. As to conditions: Staphylococcus hominis n. 1 ME, clinical ocular isolate. As to the method:
as §1, §2, §3, §4

Data set [2] concerns Staphylococcus epidermidis. Particulars: Staphylococcus epidermidis n. 21 (326) ME, clinical ocular isolate. As to the method: as §1, §2, §3, §4
In a further data set the test system is P. aeruginosa ATCC 27853. Nature of the data set: Bactericidal activity in the presence of salt (NaCl). It counts as cell-based, Pseudomonas aeruginosa. Particulars: 150 mM NaCl, 37° C., 20 min. How it is done: FIGS. 1A-1B show the effects of salt on the bactericidal activity of Esc-1a(1-21)NH2 against P. aeruginosa ATCC 27853. FIG. 1A: Bacterial cells were incubated with different concentrations of Esc-1a(1-21)NH2 in the presence of 150 mM NaCl for 20 minutes at 37° C. Mean data from three experiments, expressed as the percentage of bacteria killed by the peptide with respect to the control sample (bacteria not treated with the peptide) are reported. FIG. 1B: Bacterial cells were incubated with the peptide (1 μM) in the absence or in the presence of varying concentrations of NaCl at 37° C. for 20 minutes. Mean data from three experiments, expressed as the percentage of bacteria killed by the peptide with respect to the control sample (bacteria not treated with the peptide) are reported.
Owing to their mode of action, the antimicrobial activity of antimicrobial peptides may be reduced in the presence of salt. […] In FIG. 1B, 2×10^6 CFU/ml P. aeruginosa (ATCC 27853) were incubated with 1 μM Esc-1a(1-21)NH2 in the presence of increasing amounts of NaCl at 37° C. for 20 minutes then aliquots plated and counted (n=3). Concentrations of Esc-1a(1-21)NH2 at 0.68 μM and above fully retained activity in 150 mM NaCl, the physiological salt concentration at the ocular surface.

In the next data set the test system is Pseudomonas aeruginosa. As to conditions: Pseudomonas aeruginosa ATCC 27853, reference strain; cited from earlier work.

The source of these data is US11110195B2, “Esculentin 1a derivatives and uses thereof” (University of Houston System, priority 2013, dated 2021).

≈ marks a conversion by molar mass, not a printed value. Residues, ends and D or L forms follow the SMILES beside them.

A word on the MIC: it is the lowest concentration found to suppress growth. In the data set with Raw 264.7 macrophages, `CC[C@H](C)[C@H](NC(=O)CN)C(=O)N[C@@H](Cc1ccccc1)C(=O)N[C@@H](CO)C(=O)N[C@@H](CCCCN)C(=O)N[C@@H](CC(C)C)C(=O)N[C@@H](C)C(=O)NCC(=O)N[C@@H](CCCCN)C(=O)N[C@@H](CCCCN)C(=O)N[C@H](C(=O)N[C@@H](CCCCN)C(=O)N[C@@H](CC(N)=O)C(=O)N[C@@H](CC(C)C)C(=O)N[C@@H](CC(C)C)C(=O)N[C@H](C(=O)N[C@@H](CO)C(=O)NCC(=O)N[C@@H](CC(C)C)C(=O)N[C@@H](CCCCN)C(=O)NCC(N)=O)[C@@H](C)CC)[C@@H](C)CC` [Esc-1a(1-21)NH2] (H-GIFSKLAGKKIKNLLISGLKG-NH2; N-terminus assumed) returned a killing of 100%. Further, the “optimal concentration allowing complete coverage of the wound field” value in data set [1] stood at 0.005 µM. In data set [1], the “time to maximum cell-covered area after peptide addition” value lay within 9 to 12 h. Further, the MIC with Staphylococcus aureus was 64 µM (≈ 140 µg/mL); in the data set with Staphylococcus hominis it was 1 µM (≈ 2.18 µg/mL); in data set [2] it was 8 µM (≈ 17.5 µg/mL); in the data set on Pseudomonas aeruginosa, 4 µM (≈ 8.74 µg/mL). Further, the “Peptide concentration fully retaining bactericidal activity” value in the data set on P. aeruginosa ATCC 27853 is not below 0.68 µM.
